Measurements: patent publication US5466450A, “Antiviral antibiotic BU-4224V” (priority 1993, dated 1995)
≈ marks a conversion by molar mass, not a printed value.

Experiments:
Assay type in all cases: cell-based
[1] = test system: herpes simplex virus type 1 (KOS strain); test: Plaque reduction assay, HSV-1 infection in Vero cells; conditions: Human alphaherpesvirus 1, HSV-1, Vero cells, read-out: ID50 (the source's name)
Description: (§1) Antiviral activity for each component of BU-4224V was evaluated by the dye uptake and the plaque reduction assay using herpes simplex virus type 1 (KOS strain) infection in Vero cells. In the dye uptake assay, 200 μl of the Vero cell suspension containing 1.6×10^4 cells was poured into each well of 96-well microplates, and then 50 μl of medium containing a test compound at various concentrations was added to each well. The viral suspension (50 μl ) containing approximately 30X TCID50 was inoculated to each well. For cytotoxicity tests, the same set of wells without viruses were prepared. After incubation at 37° C. for 72 hours under the humidified 5% CO2 -95% air environment, the degree of inhibition of the virus-induced cytopathic effect and the drug-induced cytotoxicity were determined by means of the uptake of neutral red. […] Acyclovir was used as a reference compound of anti-HSV activity. The antiviral activity of BU-4224V was also evaluated by the conventional plaque reduction assay method using a 24-well microplate.

[2] = test system: herpes simplex virus type 1 (KOS strain); test: Dye uptake assay, HSV-1 infection in Vero cells; conditions: Human alphaherpesvirus 1, HSV-1, Vero cells, 72 hours, read-out: ID50 (the source's name)
Description: as §1

in vitro = conditions: monkey, vero cells
Description: as §1

[3] = Minimal toxic dose in the plaque reduction assay; conditions: monkey, HSV-Vero cells, read-out: MTD (minimal toxic dose)
Description: as §1

Nc1nc2c(ncn2COCCO)c(=O)[nH]1 [Acyclovir]
IC50 [1]: 0.27 µg/mL (≈ 1.2 µM) | IC50 [2]: 0.09 µg/mL (≈ 0.4 µM) | CC50 at 72 h (in vitro): > 100 µg/mL | MCC [3]: > 100 µg/mL
